Data on one compound can be found in patent publication US20240262826A1, “WILD TYPE KIT INHIBITORS” (Blueprint Medicines Corporation, priority 2022, published 2024).

As usually defined, the IC50 is the concentration needed to halve the response being measured.

One data set addresses Exon 11 KIT (Homo sapiens (Human), UniProt P10721, V560G). Kind of data set: Exon 11 HMC1.1 autophosphorylation assay (Phospho-Y719 c-KIT ELISA). The format is cell-based. The note with it: 90 minutes, read-out: IC50 HMC1.1 pKIT. As for the experimental part:
Exon 11 HMC1.1 autophosphorylation assay: 50,000 HMC1.1 cells were incubated in 50 ul culture media (phenol-red free IMDM, no iron, no serum) in each well of a 96-well plate and serum starved 4 hours in a tissue culture incubator (5% CO2, 37° C.). An 8-point dose concentration series of compound were then added to the cells in a volume of 7 ul to each well. After 90 minutes, 14 ul of 5× AlphaLISA Lysis Buffer (Perkin Elmer) supplemented with a protease and phosphatase inhibitor cocktail (Cell Signaling Technologies) was added to each well and shaken at […] for 5 minutes at 4° C. Phospho-Y719 c-KIT ELISA kit from Cell Signaling Technology was used to assess levels of phospho KIT.
For orientation: In an ELISA, binding on a coated surface is turned into a signal by an enzyme label.

Data set [1] deals with human P-glycoprotein (P-gp, MDR1) (Homo sapiens (Human), UniProt P08183). Kind of data set: MDCK-MDR1 cell monolayer drug transport assay (P-gp efflux ratio). The note with it: pH 7.4, MDCK-MDR1 cells, 1 uM concentration of compound, read-out: Pgp Efflux Ratio, 1 uM. The format is in vitro ADME. The method, boiled down: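 P-gp substrate potential tested in MDCK-MDR1 monolayers on Transwell supports, cultured 4-8 days; monolayers with TEER <42 ohms·cm2 discarded. Transport run in HBSS (10 mM HEPES, pH 7.4) at 37° C with compound working solution at 1 μM.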

Data set [2] has as its system NIH3T3 cell lines that overexpressed the kit mutation exon 9. Kind of data set: Exon 9 assay: cell viability (CellCounting Lite 2.0), 72 hours. The format is cell-based. The note with it: Mus musculus, read-out: IC50 NIH3T3-cKit-AY502-3dup. As for the experimental part:
(§1) Exon 9 assay: The NIH3T3 cell lines that overexpressed the kit mutation exon 9 (or parental cells) were resuscitated and well cultured, and the cells were collected and seeded in 96-well plates at 3000/well, then the compounds were added to the 96 well plates in a gradient dilution, and the plates were incubated in an incubator for 72 hours.
(§2) After 72 hours of incubation, an equal volume of CellCounting
(§3) Lite 2.0 Luminescent Cell Viability reagent was added to the 96-well plates to detect the cell viability. The data were analyzed using GraphPad Prism 7.0 softwar e, and the nonlinear S-curve regression was used to fit the data to obtain the dose-effect curve, and the IC50 value was calculated accordingly.

Another data set has as its target wild type c-kit (Homo sapiens (Human), UniProt P10721). Put plainly: PathScan phospho c-kit (Tyr719) sandwich ELISA in SCF-stimulated M-07e cells (pKIT assay). The format is cell-based. The note with it: ELISA assay (values not marked *). The method, boiled down: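 Tyr719-phosphorylated c-kit was measured by colorimetric (TMB) sandwich ELISA in lysates of M-07e cells. Cells were starved 4 h without serum or GM-CSF, dosed 60 min at 37 °C with compound (8 points, duplicate, 0.25% DMSO), and stimulated 10 min with human SCF (500 ng/mL as added). IC50 values came from 4-parameter logistic regression.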

For the next data set, the system named is NIH3T3 parental cells. Kind of data set: Exon 9 assay, parental cells: cell viability (CellCounting Lite 2.0), 72 hours. The format is cell-based. The note with it: Mus musculus. How it is done:
as §1, §2, §3

wild type c-kit, sequence (P10721 26-976): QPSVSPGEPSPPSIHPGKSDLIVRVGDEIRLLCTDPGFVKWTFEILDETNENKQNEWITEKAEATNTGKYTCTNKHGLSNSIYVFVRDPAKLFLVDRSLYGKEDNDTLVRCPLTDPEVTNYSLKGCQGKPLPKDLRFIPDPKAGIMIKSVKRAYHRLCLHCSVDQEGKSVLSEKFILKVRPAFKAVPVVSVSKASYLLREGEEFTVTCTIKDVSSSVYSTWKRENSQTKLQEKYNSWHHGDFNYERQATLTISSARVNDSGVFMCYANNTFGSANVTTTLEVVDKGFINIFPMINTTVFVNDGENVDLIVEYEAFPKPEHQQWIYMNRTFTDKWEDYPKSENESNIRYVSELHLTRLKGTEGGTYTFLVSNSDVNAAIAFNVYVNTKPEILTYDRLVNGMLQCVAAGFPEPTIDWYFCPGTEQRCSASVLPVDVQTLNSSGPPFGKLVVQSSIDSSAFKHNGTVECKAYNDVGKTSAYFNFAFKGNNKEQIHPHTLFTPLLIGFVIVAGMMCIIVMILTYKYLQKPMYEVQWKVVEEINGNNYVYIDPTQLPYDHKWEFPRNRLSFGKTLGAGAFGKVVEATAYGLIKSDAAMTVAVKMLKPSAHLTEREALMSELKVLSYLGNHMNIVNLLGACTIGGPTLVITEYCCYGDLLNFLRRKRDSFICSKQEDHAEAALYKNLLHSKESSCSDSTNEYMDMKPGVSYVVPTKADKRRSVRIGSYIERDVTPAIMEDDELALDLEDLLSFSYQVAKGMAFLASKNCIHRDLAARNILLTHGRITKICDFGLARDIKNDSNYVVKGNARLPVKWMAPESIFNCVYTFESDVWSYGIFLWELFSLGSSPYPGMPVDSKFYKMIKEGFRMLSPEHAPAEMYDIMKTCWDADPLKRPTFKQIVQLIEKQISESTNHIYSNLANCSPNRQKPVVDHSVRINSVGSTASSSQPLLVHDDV
Exon 11 KIT, sequence (P10721 26-976 V560G): as the sequence (P10721 26-976) above, with V535G counted along it
human P-glycoprotein (P-gp, MDR1), sequence (P08183 whole entry): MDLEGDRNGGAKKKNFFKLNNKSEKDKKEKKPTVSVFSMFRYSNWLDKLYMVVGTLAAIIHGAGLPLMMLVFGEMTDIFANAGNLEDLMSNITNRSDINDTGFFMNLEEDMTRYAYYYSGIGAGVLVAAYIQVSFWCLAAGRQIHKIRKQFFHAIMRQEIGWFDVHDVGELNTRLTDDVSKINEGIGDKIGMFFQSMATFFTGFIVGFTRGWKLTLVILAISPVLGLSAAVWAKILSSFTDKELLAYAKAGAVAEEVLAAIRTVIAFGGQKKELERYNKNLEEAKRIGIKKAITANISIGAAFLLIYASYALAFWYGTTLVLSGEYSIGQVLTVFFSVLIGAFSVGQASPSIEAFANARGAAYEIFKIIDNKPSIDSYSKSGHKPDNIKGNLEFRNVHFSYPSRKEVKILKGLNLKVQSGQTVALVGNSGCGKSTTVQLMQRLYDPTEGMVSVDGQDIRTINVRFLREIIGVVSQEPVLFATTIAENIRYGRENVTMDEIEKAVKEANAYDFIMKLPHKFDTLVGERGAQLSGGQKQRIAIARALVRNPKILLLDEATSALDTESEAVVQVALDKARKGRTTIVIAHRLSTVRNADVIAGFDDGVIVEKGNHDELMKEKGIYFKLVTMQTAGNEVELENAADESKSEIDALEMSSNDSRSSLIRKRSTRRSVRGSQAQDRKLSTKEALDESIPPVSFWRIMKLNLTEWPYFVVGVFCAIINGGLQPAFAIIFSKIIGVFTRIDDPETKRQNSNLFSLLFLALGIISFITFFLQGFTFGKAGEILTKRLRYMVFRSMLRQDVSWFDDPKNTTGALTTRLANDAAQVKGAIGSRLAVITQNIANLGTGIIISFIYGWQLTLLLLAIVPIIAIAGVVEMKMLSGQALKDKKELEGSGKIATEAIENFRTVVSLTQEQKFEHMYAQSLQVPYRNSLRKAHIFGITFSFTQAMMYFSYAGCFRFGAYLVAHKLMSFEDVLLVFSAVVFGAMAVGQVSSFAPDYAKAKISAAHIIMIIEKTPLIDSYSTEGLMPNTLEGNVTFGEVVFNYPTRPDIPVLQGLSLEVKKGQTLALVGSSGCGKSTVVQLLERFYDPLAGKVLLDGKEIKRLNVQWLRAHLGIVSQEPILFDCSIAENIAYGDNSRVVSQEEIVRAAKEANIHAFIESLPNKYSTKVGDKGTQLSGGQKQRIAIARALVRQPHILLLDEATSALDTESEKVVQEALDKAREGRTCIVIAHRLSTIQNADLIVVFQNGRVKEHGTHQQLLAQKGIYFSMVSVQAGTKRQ

`COC[C@@H](O)Cn1cc(-c2ccn3ncc(C(=O)Nc4cc(-c5nnn(C6CC6)n5)ccc4Cl)c3c2)c(C)n1` [Example 263, (S)-N-(2-chloro-5-(2-cyclopropyl-2H-tetrazol-5-yl)phenyl)-5-(1-(2-hydroxy-3-methoxypropyl)-3-methyl-1H-pyrazol-4-yl)pyrazolo[1,5-a]pyridine-3-carboxamide]: the IC50 on Exon 11 KIT turned out to be 0.2 nM; in data set [2] it was 2 nM; at wild type c-kit, 0.2 nM; in the data set on NIH3T3 parental cells, 123 nM. The efflux ratio at 2 h, 1 µM in data set [1] was determined as 3.
